# Measurements: article PMC12040169 (PLOS Biology, 2025)
# Peptide text beside a SMILES is read from it. * marks the point of attachment. Bz = O=C(c1ccccc1)*
# Test: in vitro
# Details: human, hela cells, % viability
row,Structure (SMILES),"viability at 28.5 h, 10 µM [%]"
1,NC(=O)c1ccccc1NC(=O)CN1CCN(Cc2cccc(F)c2)CC1 [CBK270292],85.9
2,O=C1CNC(=O)C2(C/C=C/C[C@H]3COCC[C@H]3N1)CCN(C(=O)C1CCOCC1)CC2 [CBK292143],84.9
3,CC1=CCC(C(=O)O)C(C(=O)Nc2cccnc2)C1 (stereo not drawn) [CBK265895],92.9
4,COc1ccc(-c2cnc(NS(C)(=O)=O)c(C(=O)NCc3ccco3)c2)cc1 [CBK076539],94.9
5,COc1ccc2c(c1)cc(C(=O)N(C)CCCn1nc(C)cc1C)n2C [CBK307196],81.4
6,Fc1ccc(-c2cn(-c3cncnc3)nn2)c(F)c1 [CBK112989],96.4
7,COC(=O)c1cccn2cc(CN3CCOC4CCCCC43)nc12 (stereo not drawn) [CBK304949],106
8,CCn1cc(C2CN(S(=O)(=O)c3sc(C)nc3C)CCO2)cn1 (stereo not drawn) [CBK305420],96.8
9,O=C1NCCNC(=O)C2(C/C=C/COc3ccccc31)CCCN(Cc1cscn1)C2 (stereo not drawn) [CBK292125],92.2
10,O=C(O)CCC(=O)CCC(=O)c1ccc(F)cc1 [CBK287191],87.3
11,CC(=O)Nc1ccc(-c2ccc(C(=O)NC3CC3)cn2)cc1 [CBK158854],84.9
12,CC(=O)NC(c1ccccn1)C1CCN(C(=O)C2CCCCC2)CC1 (stereo not drawn) [CBK285049],98
13,CN(C)Cc1nc2c([nH]1)c(=O)n(C)c(=O)n2C [CBK140662],99.8
14,CC(=O)N1C[C@@H](c2ccsc2)[C@@H]2CN(CC3CCCCC3)CC[C@@H]21 [CBK284587],93
15,Cc1nn(C)c2c1c(=O)n(C)c(=O)n2C [CBK026140],89.2
16,O=C1CN(C(=O)NCCOc2ccccc2)CCN1 [CBK155871],120
17,CCCc1cc(C(=O)NCCCN)cc(CCC)c1OCc1ccccc1 [CBK001736C],114
18,Cc1[nH]c2ccccc2c1C(c1ccccc1OCC(=O)O)c1c(C)[nH]c2ccccc12 [CBK266038],109
19,O=C(CN1CCCC1=O)NC1(C(F)(F)F)NC(=O)N(c2ccc(F)cc2)C1=O (stereo not drawn) [CBK268057],98.1
20,Cc1ccc(S(=O)(=O)CC(=O)N2CCN(C(=O)c3ccco3)CC2)cc1 [CBK144469],87.1
21,Cn1nc(-c2ccc(S(=O)(=O)Nc3nc(-c4cccnc4)cs3)s2)cc1C(F)(F)F [CBK067270],88.4
22,COc1cc(C(=O)N2CCC3(CC2)CC(=O)c2cc(CN4CCOCC4)ccc2O3)cc(OC)c1C [CBK169182],109

row,Structure (SMILES),"viability at 28.5 h, 10 µM [%]"
1,O=C(O)CSc1ccc(Oc2ccc(SCC(=O)O)cc2)cc1 [CBK261254],92.6
2,CC(C)(C)SCC(=O)c1ccc2c(c1)CCC(=O)N2 [CBK006168],104
3,Cc1ccc(Cc2cnc(NC(=O)N3CCC(O)C(F)(F)C3)s2)cc1C (stereo not drawn) [CBK304120],94.7
4,COc1ccc(F)cc1-c1cccc(CC2(C(=O)NCc3cccs3)CCOCC2)c1 [CBK285543],90.6
5,CCn1nccc1C(=O)NC1=C(C#N)CCC1 [CBK265836],97.6
6,CN1CCC(N(C)C(=O)NCC2COc3ccccc3O2)C1 (stereo not drawn) [CBK155994],100
7,COc1ccc(OC)c(NC(=O)CSc2ccc(-c3ccncc3)nn2)c1 [CBK287637],86.6
8,CN1CCN(N/C=C2/C(=O)N(c3ccc([N+](=O)[O-])cc3)N=C2c2ccccc2)CC1 [CBK262763],89.6
9,COC(=O)C1CCN(S(=O)(=O)c2ccccc2[N+](=O)[O-])CC1 [CBK264393],115
10,CCCCC(=O)Nc1ccc(S(N)(=O)=O)cc1 [CBK288490],113
11,NC(=O)CCn1c(=S)n(CCC(N)=O)c2ccccc21 [CBK262301],86.2
12,Cc1cc(I)ccc1NC(=O)CCC(=O)N/N=C/c1ccco1 [CBK261991],99.4
13,Cc1ccc(S(=O)(=O)NC[C@H]2CC[C@H](C(=O)O)CC2)cc1 [CBK286706],96.1
14,Cc1nccn1CCCC(=O)NCC1(c2ccccc2F)CCCC1 [CBK281370],109
15,N/C(Cc1ccc(Cl)cc1Cl)=N\OC(=O)c1cccc([N+](=O)[O-])c1 [CBK264317],91
16,CN(c1cncc(Cl)n1)C1CCN(Cc2ccccc2)CC1 [CBK012767F],77.7
17,CCCc1nnc2sc(C3CCCN(C(C)C)C3)nn12 (stereo not drawn) [CBK306781],85.3
18,O=C1c2ccccc2C(=O)N1CCOc1nccnc1-c1cnn(Cc2ccccc2)c1 [CBK107089],102
19,COc1ccc(OCc2nc3ccccc3n2C(C)c2ccccc2)cc1 (stereo not drawn) [CBK293941],116
20,COc1ccc(C(=O)Nn2c(SCC(=O)c3ccc(F)cc3)nc3ccccc3c2=O)cc1 [CBK266688],99.7
21,Cc1nc(-c2ccccc2)nc2c1c(N)nn2CC(=O)O [CBK287109],95.1
22,Cc1cccnc1NC(=O)C(C)Oc1ccccc1 (stereo not drawn) [CBK268643],90.2

row,Structure (SMILES),"viability at 28.5 h, 10 µM [%]"
1,CCc1nc(C2CCCN2c2ncc(C#N)cc2Cl)no1 (stereo not drawn) [CBK305183],91.1
2,Cc1cc(N(C)CCc2ccccc2)nc2cc(Cl)ccc12 [CBK262221],93.9
3,CS(=O)(=O)c1cccc(-c2cnc(NCC3CC3)c(C(=O)Nc3ccc4c(c3)OCO4)c2)c1 [CBK076362],95.2
4,Cc1ccc(OCC(O)CN2CCN(c3nc(-c4ccccc4)ns3)CC2)c([N+](=O)[O-])c1 (stereo not drawn) [CBK074696],95.3
5,O=C(CCN1CCN(CCO)CC1)N1c2ccccc2Sc2ccc(C(F)(F)F)cc21 [CBK278218C],96.4
6,CC1(C)CC(=O)C=C(C(=O)Nc2cncc(OC3CCNCC3)n2)O1 [CBK038922T],103
7,O=c1nc(-c2ccco2)oc2ccccc12 [CBK152421],112
8,OC(CN1CCN(c2cccc(Cl)c2)CC1)Cn1c2ccccc2c2ccccc21 (stereo not drawn) [CBK264333],98.2
9,CN1C(=O)c2ccccc2C(=O)[C@@]2(C)CN(C(=O)C3CCCC3)C[C@@H]12 [CBK284570],91.5
10,Cc1ccc2[nH]c(/C(C#N)=C\c3cc(C)n(-c4ccc(S(N)(=O)=O)cc4)c3C)nc2c1 [CBK267611],105
11,Cc1cc(Cl)ccc1CNC(=O)c1ccc(-c2ccoc2)nc1 [CBK156254],101
12,Cc1nc(CN2CCN(c3ccc4nnc(C(F)(F)F)n4n3)CC2)cs1 [CBK239750],95.1
13,O=C(Nc1ccc2[nH]ccc2c1)c1ccc(Br)cc1Cl [CBK159679],106
14,Cc1cc(C)c2nc(C(F)(F)F)nc(NCCCN3CCOCC3)c2c1 [CBK266753],86.4
15,CC(=O)Nc1cccc2c1NSN2 [CBK027082],92.1
16,CCNC(=S)N(CCc1ccccc1)C1CC(=O)N(c2ccc(F)cc2)C1=O (stereo not drawn) [CBK262941],87.6
17,O=C(Nc1ccc(-c2nc3ccccc3s2)c(O)c1)c1ccc(-c2ccccc2)cc1 [CBK263979],92.9
18,CCc1ccc2c(c1)C(CCNC(=O)c1c(C)noc1C(F)F)C(=O)N2 (stereo not drawn) [CBK304090],95.1
19,Ic1ccc2c3ccc(I)cc3c3[nH]c(-c4ccccc4)nc3c2c1 [CBK261218],92.9
20,CCOC(=O)c1c(-c2ccccc2)csc1NS(=O)(=O)c1ccc(C)cc1 [CBK015841],95.1
21,CCOCCCn1c(SC(C)C#N)nc2ccc(Br)cc2c1=O (stereo not drawn) [CBK306084],85.7
22,CC1CCN(C(=O)C[C@@H]2O[C@H](CNS(=O)(=O)c3ccccc3)[C@@H](O)[C@H]2O)CC1 [CBK288927],89.7

row,Structure (SMILES),"viability at 28.5 h, 10 µM [%]"
1,CNC(=O)CN1C(=O)CC2(C1=O)C(=O)N(C)c1ccc(OC)cc12 (stereo not drawn) [CBK075190],91.5
2,CCOC(=O)C1CCCN(CCC(=O)Nc2cc(C)ccc2C)C1 (stereo not drawn) [CBK264287C],95.7
3,O=C(Nc1ccc2c(c1)OCO2)c1nccnc1-c1ccc(COc2ccccc2)cc1 [CBK050834],109
4,OCC1CCCN1c1nccnc1-c1ccoc1 (stereo not drawn) [CBK089057],105
5,O=C(NC(Cc1ccccc1)C(=O)N1CCCC1C(=O)O)c1ccccc1 (stereo not drawn) [CBK264058] (Bz-Phe-Pro-OH; configuration not given here),90.8
6,CC(=O)N1CCc2c([nH]c3c(C)cccc23)C12CCCN(CCCC#N)C2 (stereo not drawn) [CBK039705],104
7,O=C(c1ccc(F)cc1)[C@H]1CCCN(C(=O)c2n[nH]c3c2CCC3)C1 [CBK282322],86.7
8,Cc1cccc(OCc2nnc(SCC(=O)NC3CCCCC3)o2)c1 [CBK264652],96.3
9,Cc1nc2ccc(NC(=O)c3cccc(C(F)(F)F)c3)cc2nc1C [CBK270221],88.2
10,Cc1ccc(S(=O)(=O)NCCOc2ccc(Cl)cc2)cc1[N+](=O)[O-] [CBK263268],106
11,Cc1ccc(-c2cc3cccnc3n2CCC(=O)NC2CC2)cn1 [CBK284964],97.4
12,Cc1cc(C)cc(Oc2coc3c(CN4CCOCC4)c(O)ccc3c2=O)c1 [CBK263908],89.7
13,CCCC/C=C/c1cn2ccnc2c(Nc2ccc(OC)nc2)n1 [CBK038089],100
14,O=C(Nc1ccc(=O)n2c1[C@@H]1C[C@@H](CN(C(=O)COc3ccccc3)C1)C2)c1cncnc1 [CBK288712],109
15,O[C@H](CNCc1ccccc1)COc1cccc2c1C1CCC2CC1 [CBK000370],92.6
16,Cc1ccc(CN2CCC3(CCCNC3=O)CC2)cc1 [CBK284822],90.6
17,Cc1ccc2ncc(C(=O)Nc3ccc(F)cc3F)c(=O)n2c1 [CBK287286],95.6
18,COc1cccc(CNc2ccc(C3c4ccsc4CCN3C(C)=O)cc2)c1 (stereo not drawn) [CBK286443],109
19,CC(C)(O)C#Cc1ccc(C(=O)N2CCN(Cc3ccccc3)CC2)cc1 [CBK263100],80.3
20,Cn1nc(-c2ccc(S(=O)(=O)Nc3nnc(C(F)(F)F)s3)s2)cc1C(F)(F)F [CBK062017],103

# Same assay, conditions: human, hela cells, % viability, bulk resorufin, single well
row,Structure (SMILES),"viability at 28.5 h, 10 µM [%]"
1,O=C1NC(=O)C(=CNCCc2c[nH]c3ccccc23)C(=O)N1 [CBK261635],93.2
